Data as given in patent publication US20060169172A1, “Disazo compound and ink composition containing the same” (priority 2003, published 2006).

Experiments:
Assay type in all cases: physicochemical
[1] = Test for ozone fastness (ozone weather meter); details: 24° C., 12 ppm, 60% RH, 2 hours
Experimental: (§1) The solution of the composition shown in Table 2 below, containing the disazo compound (a dyestuff component) obtained in Example 1 or 2 was prepared and filtered with a 0.45 μm membrane filter to obtain each water-based yellow ink composition for ink-jet printing. Ion-exchange water was used. Water and ammonium hydroxide were added so that the pH of the ink composition is 8 to 10 and the total amount is 100 parts.
(§2) Ink-jet recording is carried out on four kinds of recording materials of plain paper, Professional photo paper (PR-101 (made by Canon Inc.)), Photo glossy film (HG-201 (made by Canon Inc.)) and Paper for PM photo (made by SEIKO EPSON CORP.), using an ink-jet printer (Trade name: BJ S-630 from Canon Inc.) (hereinafter, described as follows, PR: Professional photo paper, HG: Photo glossy film, PM: Paper for PM photo).
(§3) A sample piece having a recorded image printed on the sample piece was left for standing at 24° C., 12 ppm and 60% RH for 2 hours using an ozone weather meter (Model OMS-H made by Suga Test Instruments Co., Ltd.). Densities (D values) before and after the test were measured. (4) A sample piece having a recorded image printed on the sample piece for a moisture fastness test was left for standing at 50° C. and 90% RH for 150 hours in a thermo-hygrostat (made by Ouyou giken sangyou Corp.). Bleeding degrees before and after the test was evaluated by visual inspection.
(§4) The results of evaluation of the ink composition prepared using the compound obtained in Example 1 are referred to Evaluation Example 1, and similarly the results of evaluation of the ink composition prepared using the compound obtained in Example 2 are referred to Evaluation Example 2. The compound represented by the following formula (6) and the compound represented by the following formula (7) were used as Comparative Example 1 and Comparative Example 2 and those were evaluated at the same optical density as those of Evaluation Examples 1 and 2 in the composition shown in Table 2.

[2] = Moisture fastness test (bleeding, visual inspection); set-up: key: ◯: No bleeding is observed.; Δ: Bleeding is a little observed.; X: Bleeding is seriously observed; details: 50° C., 90% RH, 150 hours
Experimental: as §1, §2, §3
◯: No bleeding is observed.
Δ: Bleeding is a little observed.
X: Bleeding is seriously observed.
as §4

[3] = Test for light fastness (xenon weather meter); details: 24° C., 60% RH, 50 hours
Experimental: as §1, §2
The recorded image was irradiated at 24° C. and 60% RH for 50 hours using a xenon weather meter (made by Atlas Corp.). Densities (D values) of the images before and after the irradiation were measured by means of the above calorimetric system.
Residual ratio (%)=D value after irradiation/D value before irradiation
as §4

COc1cc(N=Nc2cccc(S(=O)(=O)[O-])c2)ccc1Nc1nc(Nc2ccc(N=Nc3cccc(S(=O)(=O)[O-])c3)cc2OC)nc(N(CCO)CCO)n1.[Na+].[Na+] [Comparative Example 1]
Ozone Fastness (residual ratio) ([1]; HG (Photo glossy film)): 91%
Ozone Fastness (residual ratio) ([1]; PM (Paper for PM photo)): 97%
Ozone Fastness (residual ratio) ([1]; PR (Professional photo paper)): 89%
Ozone Fastness (residual ratio) ([1]; Plain Paper): 99%
Moisture Fastness ([2]; HG (Photo glossy film)): ◯-Δ
Moisture Fastness ([2]; PM (Paper for PM photo)): ◯-Δ
Moisture Fastness ([2]; PR (Professional photo paper)): ◯
Moisture Fastness ([2]; Plain Paper): ◯
Light Fastness (residual ratio) ([3]; HG (Photo glossy film)): 67%
Light Fastness (residual ratio) ([3]; PM (Paper for PM photo)): 86%
Light Fastness (residual ratio) ([3]; PR (Professional photo paper)): 80%
Light Fastness (residual ratio) ([3]; Plain Paper): 78%

COc1cc(N=Nc2cccc(S(=O)(=O)[O-])c2)ccc1NC(=O)Nc1ccc(N=Nc2cccc(S(=O)(=O)[O-])c2)cc1OC.[Na+].[Na+] [Comparative Example 2]
Ozone Fastness (residual ratio) ([1]; HG (Photo glossy film)): 74%
Ozone Fastness (residual ratio) ([1]; PM (Paper for PM photo)): 97%
Ozone Fastness (residual ratio) ([1]; PR (Professional photo paper)): 82%
Ozone Fastness (residual ratio) ([1]; Plain Paper): 98%
Moisture Fastness ([2]; HG (Photo glossy film)): Δ
Moisture Fastness ([2]; PM (Paper for PM photo)): X
Moisture Fastness ([2]; PR (Professional photo paper)): ◯
Moisture Fastness ([2]; Plain Paper): ◯
Light Fastness (residual ratio) ([3]; HG (Photo glossy film)): 63%
Light Fastness (residual ratio) ([3]; PM (Paper for PM photo)): 94%
Light Fastness (residual ratio) ([3]; PR (Professional photo paper)): 82%
Light Fastness (residual ratio) ([3]; Plain Paper): 81%
